The subject of this series is rodent lifetime carcinogenesis bioassay, tumor incidence TD50. Description: chronic cancer bioassays in animals – CPDB, compiled studies (AID 1745844).

Active and inactive are the calls of the source. The rule behind the calls is not given here.

One may read the TD50 as the dose at which the toxic effect under study appears in half of the subjects. As to `CCCCCCN(N=O)C(N)=O`, the TD50 (rat, strain Fischer 344, females, by gavage, site: forestomach, lesion: one or several types, types not named, dosed 50 weeks, study length 104 weeks) is 0.848 mg/kg/day; the TD50 (rat, strain Fischer 344, females, by gavage, site: lung, lesion: several types, types named in the paper, dosed 50 weeks, study length 104 weeks) was 2.06 mg/kg/day; the TD50 (rat, strain Fischer 344, females, by gavage, site: mammary gland, lesion: adenocarcinoma, dosed 50 weeks, study length 104 weeks) is 1.73 mg/kg/day; the TD50 (rat, strain Fischer 344, females, by gavage, site: uterus, lesion: several types, types named in the paper, dosed 50 weeks, study length 104 weeks) is 0.579 mg/kg/day; the TD50 (rat, strain Fischer 344, males, by gavage, site: all sites, lesion: mesothelioma, dosed 50 weeks, study length 104 weeks) worked out at 0.745 mg/kg/day; the TD50 (rat, strain Fischer 344, males, by gavage, site: colon, lesion: one or several types, types not named, dosed 50 weeks, study length 104 weeks) was 2.27 mg/kg/day. For the same compound, the carcinogen call was “positive” (rat, strain Fischer 344, males, by gavage, site: forestomach, lesion: one or several types, types not named, dosed 50 weeks, study length 104 weeks) and “positive” (rat, strain Fischer 344, males, by gavage, site: lung, lesion: several types, types named in the paper, dosed 50 weeks, study length 104 weeks).

As for `[O]=[Mo](=[O])=[O]`, the TD50 is 4450 mg/kg/day (mouse, strain B6C3F1, females, inhaled, site: liver, lesion: hepatocellular adenoma + hepatoblastoma + hepatocellular carcinoma, dosed 105 weeks, study length 105 weeks); 68.3 mg/kg/day (mouse, strain B6C3F1, females, inhaled, site: lung, lesion: alveolar/bronchiolar adenoma + alveolar/bronchiolar carcinoma, dosed 105 weeks, study length 105 weeks); 97.8 mg/kg/day (mouse, strain B6C3F1, females, inhaled, site: lung, lesion: alveolar/bronchiolar adenoma, dosed 105 weeks, study length 105 weeks); 162 mg/kg/day (mouse, strain B6C3F1, females, inhaled, site: subcutaneous tissue, lesion: sarcoma, dosed 105 weeks, study length 105 weeks); 11.7 mg/kg/day (mouse, strain B6C3F1, males, inhaled, site: liver, lesion: hepatocellular adenoma + hepatoblastoma + hepatocellular carcinoma, dosed 105 weeks, study length 105 weeks); 14.8 mg/kg/day (mouse, strain B6C3F1, males, inhaled, site: liver, lesion: hepatocellular carcinoma, dosed 105 weeks, study length 105 weeks). Also, the TD50 (mouse, strain B6C3F1, males, inhaled, site: lung, lesion: alveolar/bronchiolar adenoma + alveolar/bronchiolar carcinoma, dosed 105 weeks, study length 105 weeks) is 3.21 mg/kg/day; the TD50 (mouse, strain B6C3F1, males, inhaled, site: lung, lesion: alveolar/bronchiolar carcinoma, dosed 105 weeks, study length 105 weeks) is 4.15 mg/kg/day; the TD50 (rat, strain Fischer 344, females, inhaled, site: any site (literature study), lesion: several types, types named in the paper, dosed 105 weeks, study length 105 weeks) amounted to 14 mg/kg/day; the TD50 (rat, strain Fischer 344, females, inhaled, site: clitoral gland, lesion: adenoma + carcinoma, dosed 105 weeks, study length 105 weeks) was determined as 5.04 mg/kg/day; the TD50 (rat, strain Fischer 344, females, inhaled, site: mammary gland, lesion: adenoma + fibroadenoma, dosed 105 weeks, study length 105 weeks) was 0.77 mg/kg/day (inactive); the TD50 (rat, strain Fischer 344, males, inhaled, site: liver, lesion: hepatocellular adenoma + hepatoblastoma + hepatocellular carcinoma, dosed 105 weeks, study length 105 weeks) came to 128 mg/kg/day. In addition, the TD50 is, setting by setting: (rat, strain Fischer 344, males, inhaled, site: lung, lesion: alveolar/bronchiolar adenoma + alveolar/bronchiolar carcinoma, dosed 105 weeks, study length 105 weeks) 21.8 mg/kg/day; (rat, strain Fischer 344, males, inhaled, site: lung, lesion: alveolar/bronchiolar adenoma, dosed 105 weeks, study length 105 weeks) 31.6 mg/kg/day.

Turning to `CN(CCCC(=O)O)N=O`, the TD50 runs as follows: (rat, strain F344/DuCrj, males, in drinking water, site: urinary bladder/ureter, lesion: several types, types named in the paper, dosed 40 weeks, study length 78 weeks) 0.982 mg/kg/day; (rat, strain F344/DuCrj, males, in drinking water, site: urinary bladder/ureter, lesion: transitional-cell carcinoma, dosed 40 weeks, study length 78 weeks) 4.23 mg/kg/day.
